Earlier results on one compound are cited in patent US9573873B2, “Catalytic method for dibenzocycloheptane synthesis and allocolchicinoid synthesis” (UNIVERSITY OF WINDSOR, priority 2014, dated 2017).

For this data set the following is noted: Phase 2 clinical testing; background statement.

For the compound `COc1cc2c(c(OC)c1OC)-c1ccc(OP(=O)(O)O)cc1[C@@H](NC(C)=O)CC2` [ZD 6126, N-Acetylcolchicinol dihydrogen phosphate], the cardiotoxicity entry is listed as “failed in Phase 2 clinical testing because of this cardiotoxicity”.
